{
  "source": "patent US4021481A",
  "about": "“Amido derivatives of 2,4,6-triiodobenzoic acids containing at least one N-hydroxyalkyl and at least two hydroxyl groups” (Nyegaard & Co. A/S, priority 1969, dated 1977)",
  "key": {"Solubility in water": {"experiment": "Solubility in water", "assay_type": "physicochemical", "conditions": "for solubility: water, room temperature"}, "mice [1]": {"tested_on": "mice", "experiment": "Intracerebral toxicity in mice (LD50)", "assay_type": "in vivo", "source_text": "(§1) As indicated above, the new non-ionic compounds according to the invention have shown markedly low levels of toxicity, especially in intracerebral tests. […] It will be seen that all the new compounds listed are very much better than the known compounds in the intracerebral test.\n(§2) Intravenous and Intracerebral Toxicity\n(§3) Most of the compounds were so inert that it was not physically possible to inject sufficient substance to kill 50% of the mice and in such cases only a minimum value can be given for the LD50."}, "mice [2]": {"tested_on": "mice", "experiment": "Intravenous toxicity in mice (LD50)", "assay_type": "in vivo", "source_text": "as §1, §2, §3"}, "[3]": {"conditions": "read-out: Solubility in water at room temperature (class)"}, "[4]": {"conditions": "400 mgI/ml, dose 0.05 ml/20 g mouse"}, "[5]": {"conditions": "300 mgI/ml, dose 0.10 ml/20 g mouse"}, "[6]": {"conditions": "concentration administered 300 mgI/ml"}, "[7]": {"conditions": "known compounds, dose 0.05 ml/20 g mouse, concentration not given"}, "[8]": {"conditions": "concentration administered 280 mgI/ml, N-methylglucamine salt"}},
  "note": "Read-outs that look alike come from different tables or passages of the source.",
  "data": [
    {"compound": "CC(=O)N(C)c1c(I)c(C(=O)N(C)CC(O)CO)c(I)c(N(CCO)C(C)=O)c1I", "note": "(stereo not drawn) [Compound 4, N-[3-N-(β-hydroxyethyl)-acetamido-5-N-methylacetamido-2,4,6-triiodobenzoyl]-N-methyl-2,3-dihydroxypropylamine]", "values": [
      {"measurement": "solubility", "setting": "Solubility in water; [3]", "value": "> 500", "unit": "mg/mL"},
      {"measurement": "Intracerebral LD50", "setting": "mice [1]; [4]", "value": "> 1000", "unit": "mgI/kg"}
    ]},
    {"compound": "CC(=O)Nc1c(I)c(C(=O)N[C@@H](CO)[C@@H](O)[C@H](O)[C@H](O)CO)c(I)c(N(C)C(C)=O)c1I", "note": "[Compound 15, N-(N-methyl-3,5-diacetamido-2,4,6-triiodobenzoyl)-2-glucamine]", "values": [
      {"measurement": "solubility", "setting": "Solubility in water; [3]", "value": "> 500", "unit": "mg/mL"},
      {"measurement": "Intracerebral LD50", "setting": "mice [1]; [5]", "value": "> 1500", "unit": "mgI/kg"},
      {"measurement": "Intravenous LD50", "setting": "mice [2]; concentration administered 300 mgI/ml, dose 1.0 ml/20 g mouse", "value": "> 15000", "unit": "mgI/kg"}
    ]},
    {"compound": "CC(=O)N(CCO)c1c(I)c(C(=O)N(C)C[C@H](O)[C@@H](O)[C@H](O)[C@H](O)CO)c(I)c(N(CCO)C(C)=O)c1I", "note": "[Compound 43, N-[3,5-bis-N-(β -hydroxyethyl)-acetamido-2,4,6-triiodobenzoyl]-N-methylglucamine]", "values": [
      {"measurement": "solubility", "setting": "Solubility in water; [3]", "value": "> 500", "unit": "mg/mL"},
      {"measurement": "Intracerebral LD50", "setting": "mice [1]; [4]", "value": "> 1000", "unit": "mgI/kg"},
      {"measurement": "Intracerebral LD50", "setting": "mice [1]; 400 mgI/ml, dose 0.10 ml/20 g mouse", "value": "> 2000", "unit": "mgI/kg"},
      {"measurement": "Intravenous LD50", "setting": "mice [2]; [6]", "value": 7500, "unit": "mgI/kg"}
    ]},
    {"compound": "CC(=O)Nc1c(I)c(C(=O)O)c(I)c(N(C)C(C)=O)c1I", "note": "[N-Methyl-3,5-diacetamido-2,4,6-triiodobenzoic acid, reference compound]", "values": [
      {"measurement": "Intracerebral LD50", "setting": "mice [1]; [7]", "value": 130, "unit": "mgI/kg"},
      {"measurement": "Intravenous LD50", "setting": "mice [2]; [8]", "value": 6000, "unit": "mgI/kg"}
    ]},
    {"compound": "CNC(=O)c1c(I)c(NC(C)=O)c(I)c(C(=O)N(CCO)C[C@H](O)[C@@H](O)[C@H](O)[C@H](O)CO)c1I", "note": "[Compound 49, N-(3-Acetamido-5-N-methylcarbamoyl-2,4,6-triiodobenzoyl)-N-(2-hydroxyethyl)-glucamine]", "values": [
      {"measurement": "Intracerebral LD50", "setting": "mice [1]; [5]", "value": "> 1500", "unit": "mgI/kg"},
      {"measurement": "Intravenous LD50", "setting": "mice [2]; [6]", "value": 15000, "unit": "mgI/kg"}
    ]},
    {"compound": "CNC(=O)c1c(I)c(NC(C)=O)c(I)c(C(=O)O)c1I", "note": "[5-Acetamido-2,4,6-triiodo-N-methylisophthalamic acid, reference compound]", "values": [
      {"measurement": "Intracerebral LD50", "setting": "mice [1]; [7]", "value": 210, "unit": "mgI/kg"},
      {"measurement": "Intravenous LD50", "setting": "mice [2]; [8]", "value": 6000, "unit": "mgI/kg"}
    ]},
    {"compound": "CC(=O)N(C)c1c(I)c(C(=O)N[C@H]2C(O)O[C@H](CO)[C@@H](O)[C@@H]2O)c(I)c(N(CCO)C(C)=O)c1I", "note": "(stereo partly drawn) [Compound 10, N-[3-N-(β-hydroxyethyl)-acetamido-5-N-methylacetamido-2,4,6-triiodobenzoyl]-glucosamine]", "values": [
      {"measurement": "solubility", "setting": "Solubility in water; [3]", "value": "> 500", "unit": "mg/mL"},
      {"measurement": "Intracerebral LD50", "setting": "mice [1]; 300 mgI/ml, dose 0.05 ml/20 g mouse", "value": "> 750", "unit": "mgI/kg"},
      {"measurement": "Intracerebral LD50", "setting": "mice [1]; [5]", "value": "> 1500", "unit": "mgI/kg"},
      {"measurement": "Intravenous LD50", "setting": "mice [2]; [6]", "value": 8250, "unit": "mgI/kg"}
    ]},
    {"compound": "O=S(=O)(O)CI", "note": "[Iodomethanesulphonic acid, reference compound]", "values": [
      {"measurement": "Intracerebral LD50", "setting": "mice [1]; [7]", "value": 195, "unit": "mgI/kg"}
    ]},
    {"compound": "CC(=O)N(CCO)c1c(I)c(C(=O)N[C@H]2C(O)O[C@H](CO)[C@@H](O)[C@@H]2O)c(I)c(N(CCO)C(C)=O)c1I", "note": "(stereo partly drawn) [Compound 12, N-[N,N'-di-(β-hydroxyethyl)-3,5-diacetamido-2,4,6-triiodobenzoyl]-glucosamine]", "values": [
      {"measurement": "solubility", "setting": "Solubility in water; [3]", "value": "> 500", "unit": "mg/mL"},
      {"measurement": "Intracerebral LD50", "setting": "mice [1]; [5]", "value": "> 1500", "unit": "mgI/kg"},
      {"measurement": "Intravenous LD50", "setting": "mice [2]; concentration administered 300 mgI/ml, dose 0.8 ml/20 g mouse", "value": "> 12000", "unit": "mgI/kg"}
    ]},
    {"compound": "CC(=O)NCc1c(I)c(NC(C)=O)c(I)c(C(=O)N(C)C[C@H](O)[C@@H](O)[C@H](O)[C@H](O)CO)c1I", "note": "[Compound 7, N-(3-Acetamido-5-acetamidomethyl-2,4,6-triiodobenzoyl)-N-methylglucamine]", "values": [
      {"measurement": "solubility", "setting": "Solubility in water; [3]", "value": "> 500", "unit": "mg/mL"}
    ]},
    {"compound": "CC(=O)Nc1c(I)c(NC(C)=O)c(I)c(C(=O)N(C)C[C@H](O)[C@@H](O)[C@H](O)[C@H](O)CO)c1I", "note": "[Compound 25, N-(3,5-diacetamido-2,4,6-triiodobenzoyl)-N-methyl-glucamine]", "values": [
      {"measurement": "solubility", "setting": "Solubility in water; figure in parentheses, read-out: Solubility in water at room temperature", "value": 79, "unit": "mg/mL"},
      {"measurement": "solubility", "setting": "Solubility in water; [3]", "value": "< 200", "unit": "mg/mL"}
    ]},
    {"compound": "CC(=O)N(C)c1c(I)cc(I)c(C(=O)N(C)C[C@H](O)[C@@H](O)[C@H](O)[C@H](O)CO)c1I", "note": "[Compound 31, N-(3-N-methylacetamido-2,4,6-triiodobenzoyl)-N-methylglucamine]", "values": [
      {"measurement": "solubility", "setting": "Solubility in water; [3]", "value": "> 500", "unit": "mg/mL"}
    ]},
    {"compound": "O=S(=O)(CI)N(CCO)CCO", "note": "[Compound 29, N-(Iodomethanesulphonyl)-diethanolamine]", "values": [
      {"measurement": "Solubility in cold water", "setting": "Solubility in water; cold water, in words", "value": "sparingly soluble in cold"},
      {"measurement": "Solubility in hot water", "setting": "Solubility in water; hot water, in words", "value": "Soluble in hot water"}
    ]}
  ]
}
